Experiment: Solubility of celecoxib and valdecoxib in various solvent liquids
Format: physicochemical
Description: Aliquots of a solvent liquid were then added dropwise in approximately 100 mg increments to the solid sample. The resulting mixture was vortexed and/or sonicated between aliquot additions. […] Solubility values preceded by the<symbol denote that, at the particular concentration shown, the mixture was still cloudy, i.e., not all of the drug was fully in dissolved form.

Solubility (solvent liquid: polyethylene glycol 400) [mg/g] | Solubility (solvent liquid: propylene glycol) [mg/g] | Solubility in a DGME/water mixture compared with a PEG-400/water mixture (same ratio of mixture ingredients) | Solubility (solvent liquid: Capmul MCM (caprylic/capric mono- and diglycerides)) [mg/g] | Solubility (solvent liquid: Labrasol/DGME/propylene glycol laurate 40:40:20 w/w) [mg/g] | Solubility (solvent liquid: Labrasol/DGME/propylene glycol laurate 45:45:10 w/w) [mg/g] | Solubility (solvent liquid: Miglyol 812 (caprylic/capric triglycerides)) [mg/g] | Solubility (solvent liquid: Tagat TO (polyoxyethylene glyceryl trioleate)) [mg/g] | Solubility (solvent liquid: Tagat TO/Capmul MCM 1:1 w/w) [mg/g] | Compound | Advantage in solubility for DGME over propylene glycol (DGME versus propylene glycol)
50 to 85 | 10 to 20 |  |  |  |  |  |  |  | Cc1onc(-c2ccccc2)c1-c1ccc(S(N)(=O)=O)cc1 [valdecoxib, 4-[5-methyl-3-phenylisoxazol-4-yl]benzenesulfonamide] | approximately tenfold advantage in solubility
 |  | significantly higher | 19 to 21 | 288 to 297 | 313 to 325 | 6 to 12 | 24 to 40 | 34 to 52 | Cc1ccc(-c2cc(C(F)(F)F)nn2-c2ccc(S(N)(=O)=O)cc2)cc1 [celecoxib, 4-[5-(4-methylphenyl)-3-(trifluoromethyl)-1H-pyrazol-1-yl]benzenesulfonamide] | 

Source: patent publication US20020107250A1, “Rapid-onset formulation of a selective cyclooxygenase-2 inhibitor” (priority 2000, published 2002)
